Biological target: T1, recombinant human IL-8 type β receptor (Type II, permissive receptor) (Homo sapiens, UniProt P25025)
T1 construct: expressed in transfected cells; host or cells: Chinese hamster ovary (CHO) cells; membrane preparation
T1 sequence (P25025 1-360): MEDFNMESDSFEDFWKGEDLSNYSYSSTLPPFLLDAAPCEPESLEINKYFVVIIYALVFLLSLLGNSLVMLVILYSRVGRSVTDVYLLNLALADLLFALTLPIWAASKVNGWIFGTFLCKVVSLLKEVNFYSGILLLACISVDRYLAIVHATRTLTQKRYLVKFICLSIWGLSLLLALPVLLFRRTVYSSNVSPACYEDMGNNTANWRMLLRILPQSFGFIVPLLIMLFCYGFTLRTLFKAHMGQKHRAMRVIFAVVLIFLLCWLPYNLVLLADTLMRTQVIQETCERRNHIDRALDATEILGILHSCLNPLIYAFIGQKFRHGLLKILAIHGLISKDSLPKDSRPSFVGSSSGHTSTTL
Test: IL-8 receptor binding assay, permissive model (125I IL-8 / 125I Gro-α, CHO membranes)
Settings: recombinant receptor expressed in Chinese hamster ovary cell membranes, compound 0.01 nM to 100 uM
Experimental: The IL-8, and GRO-α chemokine inhibitory effects of compounds of the present invention were determined by the following in vitro assay:
[^125I] IL-8 (human recombinant) was obtained from Amersham Corp., Arlington Heights, Ill., with specific activity 2000 Ci/mmol. GRO-α was obtained from NEN-New England Nuclear. All other chemicals were of analytical grade. High levels of recombinant human IL-8 type α and β receptors were individually expressed in Chinese hamster ovary cells as described previously (Holmes, et al., Science, 1991, 253, 1278). The Chinese hamster ovary membranes were homogenized according to a previously described protocol (Haour, et al., J Biol Chem., 249 pp 2195-2205 (1974)). Except that the homogenization buffer was changed to 10 mM Tris-HCL, 1 mM MgS04, 0.5 mM EDTA (ethylene-diaminetetra-acetic acid), 1 mMPMSF (α-toluenesulphonyl fluoride), 0.5 mg/L Leupeptin, pH 7.5. Membrane protein concentration was determined using Pierce Co. micro-assay kit using bovine serum albumin as a standard. All assays were performed in a 96-well micro plate format. […] The filter was then dried and counted on the Betaplate liquid scintillation counter. […]

- inhibition in the permissive models for IL-8 receptor inhibition: inactive
Substance: N-(2,4-Dichloro-3-carboxy)-N′-(2,3-dichlorophenyl)urea
